The record followed here is US9353101B2 (Merck Sharp & Dohme Corp., priority 2012, dated 2016).

In test [1] the target is T1, CETP (Homo sapiens (Human), UniProt P11597). In words: Scintillation Proximity Assay (SPA) for CETP Activity. To be noted: 15 nM CETP, biotinylated LDL, 3H-cholesterol ester HDL; read-out: SPA IC50 (CETP Inhibition). The format is biochemical. As to the method: Protocol: Scintillation Proximity Assay (SPA) for CETP Activity
First, low density lipoprotein (LDL) (Meridian) was biotinylated by incubating LDL with biotin for 1 hour on ice, after which it was dialyzed to remove free biotin. Then compounds at varying concentrations were incubated with 15 nM CETP (reagent production group, In Vitro Pharmacology, MRL Rahway) and 50 ug/ml of the biotinylated LDL in 50 mM HEPES, 150 mM NaCl, pH 7.4, for 1 hour at 37° C. The reaction was started by adding ^3H-cholesterol ester high density lipoprotein (HDL) (American Radiochemicals Corp) at a concentration of ˜0.6 nM. The reaction proceeded for 2 hours at 37° C., after which time it was quenched by the addition of 12% acetic acid. PVT streptavadin-coated scintillation proximity beads, which had been brought to room temperature, were then added at a concentration of 4 mg/ml. The assay was then mixed and counted after one half hour in a Microbeta plate reader.
For orientation: Scintillation proximity formats need no separation of bound from free tracer.
Target sequence in this assay (P11597 18-493): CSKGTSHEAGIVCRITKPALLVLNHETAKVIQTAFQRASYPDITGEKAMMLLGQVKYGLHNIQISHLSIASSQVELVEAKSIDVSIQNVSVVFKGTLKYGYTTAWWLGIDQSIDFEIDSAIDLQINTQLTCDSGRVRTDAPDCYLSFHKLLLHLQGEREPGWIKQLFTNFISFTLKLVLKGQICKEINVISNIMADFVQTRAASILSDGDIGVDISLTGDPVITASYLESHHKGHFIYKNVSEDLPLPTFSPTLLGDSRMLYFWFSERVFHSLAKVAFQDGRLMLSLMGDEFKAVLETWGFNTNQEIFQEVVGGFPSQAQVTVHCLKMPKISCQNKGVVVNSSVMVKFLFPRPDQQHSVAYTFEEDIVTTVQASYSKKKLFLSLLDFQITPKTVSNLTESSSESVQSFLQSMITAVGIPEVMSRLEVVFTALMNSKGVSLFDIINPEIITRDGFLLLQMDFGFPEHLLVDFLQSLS

In test [2] the target is T1, CETP. Nature of the test: In vitro radioactive assay of CETP-catalyzed CE and TG transfer (RTA assay), 95% human serum. The class given is biochemical. Conditions: RTA assay in 95% human serum; read-out: RTA IC50 (CETP Inhibition). On the procedure: In Vitro Radioactive Assays of CETP-Catalyzed CE and TG Transfer (RTA Assay)
Reagents and sources are: [3H] cholesteryl oleate (GE #TRK.886), [3H] Triolein (Perkin-Elmer NET-431), Butylated hydroxyl toluene (Aldrich, #D4740-4), DOPC (Sigma, # P6354), Sodium Bromide (Fisher scientific #S255-500), PEG 8000 (Fisher, #BP233-1), and human HDL (Intracel Corp #RP-036).
An in vitro assay for determining IC50's to identify compounds that inhibit CETP transfer activity is performed based on a modification of a published method (Morton and Zilversmit, (1981) A plasma inhibitor of triglyceride and cholesteryl ester transfer activities, J. Biol. Chem. 256(23), 11992-11995). The ability of inhibitors to alter CETP activity is performed using two different assays: one using recombinant CETP and one using an endogenous plasma source of CETP. Both assays measure the transfer of [3H] cholesteryl oleate or [3H] triolein from exogenous LDL to HDL.
Radiolabeled donor particles are generated by first combining 100 μl of 200 μM butylated hydroxyl toluene in CHCl3, 216 μL of 21.57 mM DOPC in EtOH, and either 500 μCi [3H]-triolein (Perkin Elmer #NET-431) or 500 μCi [3H]-cholesteryl oleate (GE #TRK886) in a glass tube. Reagents are mixed, dried under nitrogen, and then resuspended in 2 mL of 50 mM Tris, 27 μM EDTA at pH 7.4. After a brief vortex, the solution is sonicated until clear and mixed with 20 mL of fresh human serum. The mixture is incubated overnight at 37° C. The [3H] labeled LDL substrate is separated at 1.063 g/ml density by sequential ultracentrifugal flotation in NaBr according to the method by (Havel, Eder et al. 1955; Chapman, Goldstein et al. 1981). Once isolated the particles are dialyzed 3× in CETP buffer (50 mM Tris, pH 7.4, 100 mM NaCl, 1 mM EDTA). Human HDL is purchased from Intracel and used as the acceptor particles.
Transfer assays are performed in a 96 or 384-well v-bottom polypropylene plate. For the RTA using recombinant CETP (2% RTA), an assay cocktail is prepared with the final concentrations 128 μg/mL HDL, 20 nM rCETP, 2% human serum, and 1×CETP buffer. 1 μL of each test compound diluted in DMSO is added to 47 μL of assay cocktail per well and incubated at 37° C. for 1 hour. To initiate the transfer reaction, 2 μL radiolabeled LDL is added. After an additional 60 min of incubation at 37° C., the transfer action is terminated by precipitation of LDL with an equal volume of 20% W/V PEG 8000. The plates are centrifuged at 2000 rpm for 30 minutes at 4° C. A 40 μL aliquot of the HDL-containing supernatant is transferred to a Packard Optiplate™ with 200 μL of MicroScint™ 20. After mixing, plates are counted by liquid scintillation. Counts present in the supernatant for blanks (wells containing only HDL acceptor, CETP buffer and DMSO) are subtracted from those containing test compounds and used to correct for non-specific transfer.
For the transfer assay using endogenous CETP from serum (95% RTA), the same procedure is used except that human serum is added such that a final concentration of serum of 95% of the total assay volume is achieved, yielding a concentration of approximately 15 nM endogenous CETP in the assay. This is then combined with HDL and CETP buffer and the reaction proceeds as above and is terminated as described.
Comparison of the counts of samples with inhibitors to an uninhibited (DMSO only) positive control yield a percent inhibition. A plot of percent inhibition vs. log of inhibitor concentration, fit to a Sigmoidal 4 parameter equation is used to calculate IC50.
Starting materials are commercially available or are made using known procedures or as shown below. The examples may be synthesized using the general schemes provided below. The data reported for the examples below were obtained using the RTA assay in 95% human serum.
Target sequence in this assay (P11597 18-493 limits assumed): as the sequence (P11597 18-493) above

In general, IC50 refers to the concentration at which inhibition is half-maximal.

`COc1ncc(C(C)C)cc1-c1cnc(N2CC(F)C2)nc1CN1C(=O)O[C@H](c2cc(C(F)(F)F)cc(C(F)(F)F)c2)[C@@H]1C` [Example 2, (4S,5R)-5-[3,5-Bis(trifluoromethyl)phenyl]-3-{[2-(3-fluoroazetidin-1-yl)-5-(5-isopropyl-2-methoxypyridin-3-yl)pyrimidin-4-yl]methyl}-4-methyl-1,3-oxazolidin-2-one]: the IC50 in test [1] came out at 11 nM.

Take `COc1ncc(-c2cnn(C)c2)cc1-c1cnc(N2CC(F)C2)nc1CN1C(=O)O[C@H](c2cc(C(F)(F)F)cc(C(F)(F)F)c2)[C@@H]1C` [Example 4]: the IC50 in test [1] amounted to 137 nM.

Consider `COc1ncc(C2CC2)cc1-c1cnc(N2CC(F)C2)nc1CN1C(=O)O[C@H](c2cc(C(F)(F)F)cc(C(F)(F)F)c2)[C@@H]1C` [Example 5], for which the IC50 in test [1] was found to be 34 nM.

For `COc1ncc(Cl)cc1-c1cnc(N2CCOCC2)nc1CN1C(=O)O[C@H](c2cc(C(F)(F)F)cc(C(F)(F)F)c2)[C@@H]1C` [Example 11, (4S,5R)-5-[3,5-Bis(trifluoromethyl)phenyl]-3-{[5-(5-chloro-2-methoxypyridin-3-yl)-2-(morpholin-4-yl)pyrimidin-4-yl]methyl}-4-methyl-1,3-oxazolidin-2-one], the IC50 in test [1] came out at 671 nM.

On to `COc1ncc(-c2c(C)cc(C(=O)O)cc2C)cc1-c1cnc(N2CC(F)C2)nc1CN1C(=O)O[C@H](c2cc(F)cc(C(F)(F)F)c2)[C@@H]1C` [Example 48, 4-{5-[2-(3-Fluoroazetidin-1-yl)-4-({(4S,5R)-5-[3-fluoro-5-(trifluoromethyl)phenyl]-4-methyl-2-oxo-1,3-oxazolidin-3-yl}methyl)pyrimidin-5-yl]-6-methoxypyridin-3-yl}-3,5-dimethylbenzoic acid], for which, in test [2], the IC50 came to 15 nM.

With `Cc1cc(C(=O)O)ccc1-c1nc(C(C)(C)C)c(-c2cnc(N3CC(F)(F)C3)nc2CN2C(=O)O[C@H](c3cc(C(F)(F)F)cc(C(F)(F)F)c3)[C@@H]2C)s1` [Example 49, 4-{5-[4-({(4S,5R)-5-[3,5-Bis(trifluoromethyl)phenyl]-4-methyl-2-oxo-1,3-oxazolidin-3-yl}methyl)-2-(3,3-difluoroazetidin-1-yl)pyrimidin-5-yl]-4-tert-butyl-1,3-thiazol-2-yl}-3-methylbenzoic acid], in test [2], the IC50 was 800 nM.

As to `Cc1cc(C(=O)O)ccc1-c1nc(C(C)(C)C)c(-c2cnc(N3CC(F)C3)nc2CN2C(=O)O[C@H](c3cc(C(F)(F)F)cc(C(F)(F)F)c3)[C@@H]2C)s1` [Example 50, 4-{5-[4-({(4S,5R)-5-[3,5-Bis(trifluoromethyl)phenyl]-4-methyl-2-oxo-1,3-oxazolidin-3-yl}methyl)-2-(3-fluoroazetidin-1-yl)pyrimidin-5-yl]-4-tert-butyl-1,3-thiazol-2-yl}-3-methylbenzoic acid], the IC50 in test [2] stood at 197 nM.

Regarding `Cc1cc(C(=O)O)ccc1-c1nc(C)c(-c2cnc(N3CC(F)C3)nc2CN2C(=O)O[C@H](c3cc(C(F)(F)F)cc(C(F)(F)F)c3)[C@@H]2C)s1` [Example 51, 4-{5-[4-({(4S,5R)-5-[3,5-Bis(trifluoromethyl)phenyl]-4-methyl-2-oxo-1,3-oxazolidin-3-yl}methyl)-2-(3-fluoroazetidin-1-yl)pyrimidin-5-yl]-4-methyl-1,3-thiazol-2-yl}-3-methylbenzoic acid], in test [2], the IC50 amounted to 33 nM.

Consider `Cc1cc(C(=O)O)ccc1-c1nc(C)c(-c2cnc(N3CC(F)(F)C3)nc2CN2C(=O)O[C@H](c3cc(C(F)(F)F)cc(C(F)(F)F)c3)[C@@H]2C)s1` [Example 52, 4-{5-[4-({(4S,5R)-5-[3,5-Bis(trifluoromethyl)phenyl]-4-methyl-2-oxo-1,3-oxazolidin-3-yl}methyl)-2-(3,3-difluoroazetidin-1-yl)pyrimidin-5-yl]-4-methyl-1,3-thiazol-2-yl}-3-methylbenzoic acid], for which the IC50 in test [2] was determined as 61 nM.

As for `Cc1cc(C(=O)O)ccc1-c1cnc(C)c(-c2cnc(N3CC(F)C3)nc2CN2C(=O)O[C@H](c3cc(C(F)(F)F)cc(C(F)(F)F)c3)[C@@H]2C)c1` [Example 54, 4-{5-[4-({(4S,5R)-5-[3,5-Bis(trifluoromethyl)phenyl]-4-methyl-2-oxo-1,3-oxazolidin-3-yl}methyl)-2-(3-fluoroazetidin-1-yl)pyrimidin-5-yl]-6-methylpyridin-3-yl}-3-methylbenzoic acid], in test [2], the IC50 stood at 26 nM.

In the case of `COc1ncc(-c2ccc(C(=O)OC(C)(C)C)cc2C)cc1-c1ccc(N2CCOCC2)nc1CN1C(=O)O[C@H](c2cc(C(F)(F)F)cc(C(F)(F)F)c2)[C@@H]1C` [Example 55], the IC50 in test [2] came out at 22 nM.

With `COc1ncc(-c2ccc(C(=O)O)cc2C)cc1-c1ccc(N2CCOCC2)nc1CN1C(=O)O[C@H](c2cc(C(F)(F)F)cc(C(F)(F)F)c2)[C@@H]1C` [Example 56], the IC50 in test [2] is 9 nM.

Regarding `COc1ncc(-c2c(C)cc(C(=O)OC(C)(C)C)cc2C)cc1-c1ccc(N2CC(F)(F)C2)nc1CN1C(=O)O[C@H](c2cc(C(F)(F)F)cc(C(F)(F)F)c2)[C@@H]1C` [Example 57], the IC50 in test [2] was found to be 5 nM.

For `COc1ncc(-c2c(C)cc(C(=O)O)cc2C)cc1-c1ccc(N2CC(F)(F)C2)nc1CN1C(=O)O[C@H](c2cc(C(F)(F)F)cc(C(F)(F)F)c2)[C@@H]1C` [Example 58], in test [2], the IC50 came out at 7 nM.

On to `COc1ncc(-c2ccc(C(=O)OC(C)(C)C)cc2C)cc1-c1ccc(N2CC(F)(F)C2)nc1CN1C(=O)O[C@H](c2cc(C(F)(F)F)cc(C(F)(F)F)c2)[C@@H]1C` [Example 59], for which the IC50 in test [2] was 15 nM.

On to `COc1ncc(-c2ccc(C(=O)O)cc2C)cc1-c1ccc(N2CC(F)(F)C2)nc1CN1C(=O)O[C@H](c2cc(C(F)(F)F)cc(C(F)(F)F)c2)[C@@H]1C` [Example 60], for which the IC50 in test [2] was determined as 5 nM.

In the case of `COc1ncc(-c2ccc(C(=O)OC(C)(C)C)cc2C)cc1-c1ccc(N2CC(F)C2)nc1CN1C(=O)O[C@H](c2cc(C(F)(F)F)cc(C(F)(F)F)c2)[C@@H]1C` [Example 61], the IC50 in test [2] was determined as 15 nM.

As for `COc1ncc(-c2ccc(C(=O)O)cc2C)cc1-c1ccc(N2CC(F)C2)nc1CN1C(=O)O[C@H](c2cc(C(F)(F)F)cc(C(F)(F)F)c2)[C@@H]1C` [Example 62], in test [2], the IC50 amounted to 6 nM.

As to `COc1ncc(-c2c(C)cc(C(=O)O)cc2C)cc1-c1cnc(N2CC(F)(F)C2)cc1CN1C(=O)O[C@H](c2cc(C(F)(F)F)cc(C(F)(F)F)c2)[C@@H]1C` [Example 63], the IC50 in test [2] came out at 52 nM.

`Cc1noc(C)c1-c1cnc(N2CCC2)nc1CN1C(=O)O[C@H](c2cc(C(F)(F)F)cc(C(F)(F)F)c2)[C@@H]1C` [Example 64, (4S,5R)-3-{[2-(azetidin-1-yl)-5-(3,5-dimethylisoxazol-4-yl)pyrimidin-4-yl]methyl}-5-[3,5-bis(trifluoromethyl)phenyl]-4-methyl-1,3-oxazolidin-2-one]: the IC50 in test [2] was found to be 271 nM.
